Data on nine compounds can be found in patent publication US20240025922A1, “TETRAHYDROPYRIDO[3,4-d]PYRIMIDINES AS HPK1 INHIBITORS” (Merck Patent GmbH, priority 2022, published 2024).

The target in test [1] is full-length human HPK1 (MAP4K1) (Homo sapiens (Human), UniProt Q92918). As to the kind of experiment: HPK1 Kinase Assay (Biochemical Assay), ADP-Glo. To be noted: GST-HPK1 3.2 nM, 10 μM ATP, MBP substrate, read-out: HPK1 enzymatic IC50. Put shortly:
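GST-tagged full-length human HPK1 was expressed in Sf21 cells and used at 3.2 nM in 50 mM HEPES pH 7.5, 10 mM MgCl2, 2 mM DTT, 12.5 mM O-glycerophosphate, 0.01% BSA and 0.02% Brij-35. It was preincubated 15 min with 10-point compound dilutions, and the reaction was started with a start mix of 10 μM ATP and 3.235 μM MBP. After 120 min, ADP was measured by ADP-Glo luminescence and IC50 derived.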

The target in test [2] is HPK1 (SLP76 phosphorylation at Ser376 in Jurkat and EL-4 cells) (Homo sapiens, UniProt Q92918). It is filed as cell-based. To be noted: αCD3/αCD28 Dynabeads stimulated cells, pSLP76 (Ser376) detection; read-out: HPK1 pSLP76 IC50. On the procedure:
Cellular Assay—Phospho-SLP-76 (Ser376).
Inhibition of HPK1 enzymatic activity in cells was determined by detection of SLP76 phosphorylation at Ser376 residue in lysate from Jurkat (human) and EL-4 (mouse) cells. Jurkat and EL-4 cells express both HPK1 and SLP76 naturally. All cells were cultured in RPMI 1640 media containing 10% heat inactivated fetal bovine serum (FBS) and 1×Penicillin-Streptomycin. In either Jurkat or El-4 assay, cells were pre-incubated with test compounds prior to T cell stimulation by respective αCD3/αCD28 Dynabeads™. For detection, plates were read on the Envision and percent inhibition and IC50 were determined by Smart fit in Genedata Analyzer.
For Jurkat cells: 35 μL cell suspension were dispensed at a density of 30,000 cells/well in 384-well plates containing HBSS (Gibco, 14025076)+0.1% BSA). 10-point logarithmic serial dilution of test compounds in DMSO were prepared by a Hamilton automated liquid handling robot and 35 nL was transferred into each well by an Echo liquid handler. After 60 min. pre-incubation, the cells were stimulated by adding 5 μL human T activator αCD3/αCD28 Dynabeads™ (Gibco, 11132D) at 1.2×107 beads/mL for 15 minutes at 37° C. Detection of Ser376 phosphorylation status was accomplished by first adding 10 μL of 5×AlphaLISA lysis buffer (Perkin Elmer, ALSU-PSLP-A500) to each well of the cell plate using a Multidrop Combi (5840300), followed by 20 minutes shaking. 10 μL cell lysate from each treatment were then transferred to a white 384-well plate (Corning 3572) and incubated with AlphaLISA acceptor beads for one hour (AlphaLISA SureFire Ultra p-SLP76(Ser376), Perkin Elmer, ALSU-PSLP-A500), and donor beads for additional 2 hours at room temperature in the dark.
For EL-4.IL2 assay, 50 μL cell suspension at 2×10^6 cells/mL in HBSS were first dispensed into 384-well plates and then 50 nL serial dilutions of test compounds were spotted to each well by an Echo liquid handler. After 60 min. incubation at 37° C., cells were stimulated by adding 5 μL mouse T cell activator αCD3/αCD28 Dynabeads™ (ThermFisher Scientific, 11452D) for 30 minutes at 37° C. After a brief spin and subsequent supernatant discarded, 12.5 μL of Cisbio lysis buffer were added to each well and plates were shaken for 30 min at 450 RPM. For detection, 4 μL prepared HTRF antibody mixture (Cisbio, 63ADK000U) in detection buffer were mixed with 16 μl of cell lysate and plates were incubated at room temperature for 19 hours prior to EnVision reading.

Chain of HPK1 (SLP76 phosphorylation at Ser376 in Jurkat and EL-4 cells) (Q92918 whole entry, looked up): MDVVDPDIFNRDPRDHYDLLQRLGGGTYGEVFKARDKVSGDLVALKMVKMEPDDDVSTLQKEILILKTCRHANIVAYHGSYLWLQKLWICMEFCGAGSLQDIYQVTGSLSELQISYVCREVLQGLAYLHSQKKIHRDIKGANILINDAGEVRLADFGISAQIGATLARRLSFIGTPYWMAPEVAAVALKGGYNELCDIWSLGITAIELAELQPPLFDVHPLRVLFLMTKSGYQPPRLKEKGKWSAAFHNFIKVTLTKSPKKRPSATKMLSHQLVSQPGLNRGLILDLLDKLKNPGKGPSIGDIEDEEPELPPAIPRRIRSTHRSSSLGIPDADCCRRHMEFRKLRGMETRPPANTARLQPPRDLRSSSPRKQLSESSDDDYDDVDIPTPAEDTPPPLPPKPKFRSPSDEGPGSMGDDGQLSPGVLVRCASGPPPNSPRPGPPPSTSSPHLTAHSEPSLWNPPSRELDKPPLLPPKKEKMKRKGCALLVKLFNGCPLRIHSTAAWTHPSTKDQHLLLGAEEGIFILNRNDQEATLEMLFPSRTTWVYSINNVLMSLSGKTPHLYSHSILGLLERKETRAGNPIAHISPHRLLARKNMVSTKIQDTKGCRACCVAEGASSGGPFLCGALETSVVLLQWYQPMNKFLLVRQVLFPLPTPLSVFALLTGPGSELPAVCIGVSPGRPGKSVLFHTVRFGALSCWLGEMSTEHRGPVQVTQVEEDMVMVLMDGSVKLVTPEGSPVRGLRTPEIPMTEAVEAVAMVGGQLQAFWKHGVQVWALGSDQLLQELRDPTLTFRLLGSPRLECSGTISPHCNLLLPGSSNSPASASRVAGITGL
Chain of full-length human HPK1 (MAP4K1) (Q92918 whole entry): as the sequence (Q92918 whole entry, looked up) above

As for `Cc1c(N2CCc3cnc(Nc4ccc(NCCN(C)C)nc4)cc3C2)cnc2c1NCCO2` [Example 26, N2-[2-(dimethylamino)ethyl]-N5-(6-{8-methyl-1H,2H,3H-pyrido[2,3-b][1,4]oxazin-7-yl}-5,6,7,8-tetrahydro-2,6-naphthyridin-3-yl)pyridine-2,5-diamine], the IC50 in test [1] is below 100 nM; in test [2], 500 to 1000 nM.

Turning to `Cc1cc(Nc2cc3c(cn2)CCN(c2cnc4c(c2C)NCCO4)C3)ccc1C(=O)NCCN1CCOCC1` [Example 27, 2-methyl-4-[(6-{8-methyl-1H,2H,3H-pyrido[2,3-b][1,4]oxazin-7-yl}-5,6,7,8-tetrahydro-2,6-naphthyridin-3-yl)amino]-N-[2-(morpholin-4-yl)ethyl]benzamide], the half-inhibitory concentration (IC50) was below 100 nM in test [1] and 500 to 1000 nM in test [2].

In the case of `Cc1cc(Nc2ncc3c(n2)CN(c2cnc4c(c2C)NCCO4)CC3)cnc1NCCN(C)C` [Example 28, N2-[2-(dimethylamino)ethyl]-3-methyl-N5-(7-{8-methyl-1H,2H,3H-pyrido[2,3-b][1,4]oxazin-7-yl}-5H,6H,7H,8H-pyrido[3,4-d]pyrimidin-2-yl)pyridine-2,5-diamine], the figures for the IC50 in test [1] and in test [2] were below 100 nM and 500 to 1000 nM, respectively.

As to `Cc1c(N2CCc3cnc(Nc4ccc(NC(=O)CN5CCOCC5)c(C(F)(F)F)c4)nc3C2)cnc2c1NCCO2` [Example 29, N-{4-[(7-{8-methyl-1H,2H,3H-pyrido[2,3-b][1,4]oxazin-7-yl}-5H,6H,7H,8H-pyrido[3,4-d]pyrimidin-2-yl)amino]-2-(trifluoromethyl)phenyl}-2-(morpholin-4-yl)acetamide], the IC50 in test [1] was below 100 nM; in test [2], below 500 nM.

Take `Cc1c(N2CCc3cnc(Nc4ccc5c(c4)CN(CC(C)(C)O)C5)nc3C2)cnc2c1NCCO2` [Example 30, 2-methyl-1-{5-[(7-{8-methyl-1H,2H,3H-pyrido[2,3-b][1,4]oxazin-7-yl}-5H,6H,7H,8H-pyrido[3,4-d]pyrimidin-2-yl)amino]-2,3-dihydro-1H-isoindol-2-yl}propan-2-ol]: the IC50 was below 100 nM in test [1] and below 500 nM in test [2].

In the case of `Cc1c(N2CCc3cnc(Nc4ccc(NC(=O)CN(C)C)nc4)cc3C2)cnc2c1NCCO2` [Example 31, 2-(dimethylamino)-N-{5-[(6-{8-methyl-1H,2H,3H-pyrido[2,3-b][1,4]oxazin-7-yl}-5,6,7,8-tetrahydro-2,6-naphthyridin-3-yl)amino]pyridin-2-yl}acetamide], the IC50 in test [1] is below 100 nM; in test [2] it was above 1000 nM.

Turning to `Cc1c(N2CCc3cnc(Nc4ccc(NC(=O)CN5CCOCC5)nc4)cc3C2)cnc2c1NCCO2` [Example 32, N-{5-[(6-{8-methyl-1H,2H,3H-pyrido[2,3-b][1,4]oxazin-7-yl}-5,6,7,8-tetrahydro-2,6-naphthyridin-3-yl)amino]pyridin-2-yl}-2-(morpholin-4-yl)acetamide], the IC50 was below 100 nM in test [1] and above 1000 nM in test [2].

Regarding `Cc1cc(Nc2cc3c(cn2)CCN(c2cnc4c(c2C)NCCO4)C3)ccc1NC(=O)CN(C)C` [Example 33, 2-(dimethylamino)-N-{2-methyl-4-[(6-{8-methyl-1H,2H,3H-pyrido[2,3-b][1,4]oxazin-7-yl}-5,6,7,8-tetrahydro-2,6-naphthyridin-3-yl)amino]phenyl}acetamide], the IC50 was below 100 nM in test [1] and above 1000 nM in test [2].

In the case of `Cc1cc(Nc2cc3c(cn2)CCN(c2cnc4c(c2C)NCCO4)C3)ccc1NC(=O)CN1CCOCC1` [Example 34, N-{2-methyl-4-[(6-{8-methyl-1H,2H,3H-pyrido[2,3-b][1,4]oxazin-7-yl}-5,6,7,8-tetrahydro-2,6-naphthyridin-3-yl)amino]phenyl}-2-(morpholin-4-yl)acetamide], the IC50 in test [1] is below 100 nM; in test [2], below 500 nM.
